In patent US20230346661A1, “Anhydrous Azelaic Acid Topical Formulations” (Baek Clinical Inc., priority 2020, published 2023):

Columns and labels:
[1] = tested on: erythema (skin redness); settings: concentrations of 0.2%; cited from earlier work
[2] = Solubility of optional additional components in non-aqueous solvents; format: physicochemical
Excerpt: Additional ingredients were chosen for their compatibility with (e.g., miscibility in) 1,3 propanediol, 1,2 propanediol, and 1,3 butanediol.

[3] = Maximum concentration of azelaic acid solubilized with heat in a given solvent without precipitation upon cooling; format: physicochemical; settings: in dimethyl isosorbide, relative to the approximately 10 to 12% of the diols
Excerpt: In order to determine a desirable ratio of azelaic acid to urea for certain compositions of this disclosure, the maximum concentration for azelaic acid that can be solubilized is first determined, with heat exposure, in a given solvent without precipitation upon cooling.

[4] = tested on: melasma; settings: cited from earlier work
[5] = Ability of polyol solvents to solubilize azelaic acid; format: physicochemical
Procedure: A series of experiments were performed to assess and optimize the components of the subject formulations.

[6] = cited from earlier work
[7] = tested on: transepidermal water loss; settings: in vivo; cited from earlier work

madecassoside
ability to reduce erythema (skin redness) [1]: desirable ability to reduce erythema
solubility ([2]; at a concentration of 0.2% in 1,3 propanediol, 1,2 propanediol and 1,3 butanediol): soluble

CC1(C)[C@@H](O[C@H]2O[C@H](C(=O)O)[C@@H](O)[C@H](O)[C@H]2O[C@@H]2O[C@H](C(=O)O)[C@@H](O)[C@H](O)[C@H]2O)CC[C@]2(C)[C@H]3C(=O)C=C4[C@@H]5C[C@@](C)(C(=O)O)CC[C@]5(C)CC[C@@]4(C)[C@]3(C)CC[C@@H]12 [glycyrrhizic acid]
solubility ([2]; in 1,3-propanediol): shows solubility

O=C(O)CCCCCCCC(=O)O [azelaic acid]
maximum concentration for azelaic acid that can be solubilized [3]: significantly lower
treatment differences in overall rating, reduction in lesion size and pigmentary intensity ([4]; 20% azelaic acid compared to 4% hydroquinone): no significant treatment differences
allergic sensitization or exogenous ochronosis ([4]; 20% azelaic acid): no allergic sensitization or exogenous ochronosis observed
good or excellent results in lightening melasma ([4]; 20% azelaic acid): 65%
ability to solubilize azelaic acid ([5]; solvent 1,2-hexanediol used alone): moderate
ability to solubilize azelaic acid ([5]; solvent 1,2-propanediol (propylene glycol)): moderate
ability to solubilize azelaic acid ([5]; solvent 1,3-butanediol (butylene glycol)): moderate
ability to solubilize azelaic acid ([5]; solvent 1,3-propanediol): moderate
ability to solubilize azelaic acid ([5]; solvent 1,5-pentanediol (pentylene glycol)): moderate
ability to solubilize azelaic acid ([5]; solvent dimethyl isosorbide): very limited
ability to solubilize azelaic acid ([5]; solvents glycerin and diglycerin): moderate and low
solubility in cosmetic oils ([6]; cosmetic oils): little or no solubility
stability of azelaic acid in alcohol ([6]; ethyl alcohol, normal temperatures): unstable
maximum azelaic acid in a water and azelaic acid solution ([6]; water): about 0.24 % by weight (w/w)

COc1cc(CC(C(C)=O)C(C)=O)ccc1O [Acetyl zingerone]
solubility ([2]; at 0.5-1% in 1,3 propanediol, 1,2 propanediol and 1,3 butanediol): readily soluble

CC(C)(CO)[C@@H](O)C(=O)NCCCO [Panthenol]
concentration at which inhibition of transepidermal water loss is apparent [7]: ≥ 1%
